Assay results from patent US9314521B2, “Adjuvant compound” (ISA Pharmaceuticals B.V., priority 2011, dated 2016).
Non-standard residues stand in square brackets, D forms with d. No end group written: not given here. *: point of attachment. Cys((RS)-2,3-di(palmitoyloxy)-propyl) = Cys S-substituted with (RS)-2,3-di(palmitoyloxy)-propyl (dipalmitoyl-glyceryl); X1 = (RS)‑2,3‑di(palmitoyloxy)‑propyl, CCCCCCCCCCCCCCCC(=O)OCC(C*)OC(=O)CCCCCCCCCCCCCCC; 1‑tetradecyl‑urea = N-terminal tetradecyl-urea lipid group, CCCCCCCCCCCCCCNC(=O)*; Abu = CC[C@H](N)C(=O)O

Experiments:
DC = experiment: UPam variants: up-regulation of cell surface markers CD40, CD86 and MHC Class II (DC maturation); format: cell-based; conditions: 3 μM and 30 nM
Description: The UPam variants wherein Xn was varied were compared by measuring IL-12 production and the up-regulation of the cell surface markers CD40, CD86 and MHC Class II at 3 μM and 30 nM. Herein, Xn takes the place of serine in the SK4 (SEQ ID NO: 18) peptide part according to formula (2), containing different groups for R^5. Compounds X1 up to X8 containing these different groups R^5, which were studied are listed in the table below, wherein X1 is the UPam-14 as prepared in Example 1 and X2 is the UPam-14-Abu as prepared in Example 3. The potency of the compounds to upregulate CD40 followed the trend as observed in the DC maturation assay. […] In the up-regulation of the cell surface marker CD86 and MHC class II a corroborated trend was observed.

[1] = test system: murine dendritic cell line; experiment: activation of murine dendritic cell line, IL-12 ELISA; format: cell-based; conditions: 24 hours, titrating concentrations
Description: The two compounds U-Pam-12 and U-Pam-14 as obtained in Example 1 were tested in comparison to unmodified Pam3CysSK4 (SEQ ID NO: 11) for their functional capacity to activate a human TLR2 expressing reporter cell line HEK-TLR2 (FIG. 3A) and a murine dendritic cell line (FIG. 3B).
In the test live TLR2-transfected HEK cells and dendritic cells (5×10^4 cells/well) were incubated with titrating concentrations of the respective Pam compounds in culture medium and incubated at 37° C. After 24 hours, supernatants were harvested and the presence of IL-8 or IL-12 cytokines respectively, was measured by specific sandwich ELISA assays.

murine DC cell line = experiment: DC maturation: cell surface marker expression in murine DC cell line by FACS (FIG. 4); format: cell-based; conditions: 30 nM, 48 hours, compared to Pam3CSK4
Description: The DCs were subsequently stained with antibodies directed against CD40, CD86 and MHC class II molecules. Mean fluorescence intensity was determined FACS analysis.

[2] = test system: human monocyte-derived dendritic cells (moDC); experiment: activation of human monocyte-derived dendritic cells (moDC): IL12p40, IL12p70 ELISA and CD86 staining (FIG. 5); format: cell-based; conditions: 48 hours of incubation, compared to Pam3CSK4 or Pam-SLP
Description: On day 5 of culturing the CD 14±fraction of donor PBMC in growth medium with IL-4 and GM-CSF, these moDC were incubated with either wt Pam3CSK4 (SEQ ID NO: 11), U-Pam14, Pam3CSK4 (SEQ ID NO: 11)-conjugated or U-Pam14-conjugated synthetic long peptide (Pam-SLP or uPam14-SLP), or left unstimulated. After 48 hours of incubation, the supernatant of the moDC cultures was taken, which was subjected to IL12p40 (FIG. 5A) and IL12p70 (FIG. 5B) ELISA analysis. After 48 hours of incubation, the moDCs were stained with antibodies directed against CD86 (FIG. 5C).

cellular immune response = conditions: mice; Vaccine 22 (2004) 2494-2499; cited from earlier work

Substance	up-regulation of CD40 compared to Pam3Cys-SK4 (DC)	stimulation (IL-12 cytokine production) compared to unmodified Pam3CysSK4 [1]	expression of cell surface molecules CD40, CD86 and MHC class II (mean fluorescence intensity) (murine DC cell line)	activation of human dendritic cells (IL12p40, IL12p70, CD86) [2]	additive for eliciting a cellular immune response (cellular immune response)
1-tetradecyl-urea-Cys((RS)-2,3-di(palmitoyloxy)-propyl)-Abu-Lys-Lys-Lys-Lys-NH2 ({1‑tetradecyl‑urea-Cys((RS)-2,3-di(palmitoyloxy)-propyl)}-[Abu]KKKK-NH2) [Upam-14-Abu]	increased amount of up-regulation	–	–	–	–
1-tetradecyl-urea-Cys((RS)-2,3-di(palmitoyloxy)-propyl)-Ser-Lys-Lys-Lys-Lys-NH2 ({1‑tetradecyl‑urea}-C(X1)SKKKK-NH2; SMILES CCCCCCCCCCCCCCCC(=O)OCC(CSC[C@H](NC(=O)NCCCCCCCCCCCCCC)C(=O)N[C@@H](CO)C(=O)N[C@@H](CCCCN)C(=O)N[C@@H](CCCCN)C(=O)N[C@@H](CCCCN)C(=O)N[C@@H](CCCCN)C(N)=O)OC(=O)CCCCCCCCCCCCCCC) [U-Pam-14]	increased amount of up-regulation	superior to wt Pam	superior to wt Pam	improves activation of human dendritic cells	–
Pam3Cys-SK4: established TLR2/TLR1 ligand, state of the art lipopeptide adjuvant (SEQ ID NO: 11) (CSKKKK; not fully specified (residue 1, N-terminus))	–	–	–	–	most effective additive
